Source: article PMC11359197 (Viruses, 2024)

Each molecule was assayed against released M^pro-GST (Severe acute respiratory syndrome coronavirus 2, UniProt P0DTD1, Q3569E).
Assay type: cell-based, SARS-CoV-2

Q: How did the “GFP signal (GFP degradation by the released M^pro-GST)” value turn out when CC(C)C[C@H](NC(=O)[C@H]1O[C@@H]1C(=O)O)C(=O)NCCCCN=C(N)N [E-64] was run?
A: The value was “background levels”.

Q: How did the “GFP signal versus DMSO controls, pilot screen” value (from here on “GFP signal versus DMSO controls”) turn out when CC(C)[C@H](O)C(=O)N[C@@H](C)C(=O)N[C@@H]1C(=O)N(C)CCc2ccccc21 [LY450139] was run?
A: Its value is “higher GFP signals”.

Q: CC(NC(=O)[C@H](Cc1ccccc1)NC(=O)OCc1ccccc1)C(=O)CF (some centres unmarked) [Z-FA-FMK] was tested. Which “GFP signal (GFP degradation by the released M^pro-GST)” value did it give?
A: Its value is “consistently suppressed the GFP degradation”.

Q: And the “GFP signal versus DMSO controls” value?
A: The value was “higher GFP signals”.

Q: COC(=O)N[C@H](C(=O)N[C@@H](Cc1ccccc1)[C@@H](O)CN(Cc1ccc(-c2ccccn2)cc1)NC(=O)[C@@H](NC(=O)OC)C(C)(C)C)C(C)(C)C [atazanavir] was tested. Which “GFP signal (GFP degradation by the released M^pro-GST)” value did it give?
A: Its value is “background levels”.

Q: Which “GFP signal (GFP degradation by the released M^pro-GST)” value does the source give for CC(C)(C)NC(=O)N[C@H](C(=O)N1C[C@H]2[C@@H]([C@H]1C(=O)NC(CC1CCC1)C(=O)C(N)=O)C2(C)C)C(C)(C)C (some centres unmarked) [boceprevir, Boceprevir] here?
A: The value was “consistently suppressed the GFP degradation”.

Q: And the “GFP signal versus DMSO controls” value?
A: The value was “higher GFP signals”.

Q: Which “GFP signal (GFP degradation by the released M^pro-GST)” value does the source give for Cc1cccc(C)c1OCC(=O)N[C@@H](Cc1ccccc1)[C@@H](O)C[C@H](Cc1ccccc1)NC(=O)[C@H](C(C)C)N1CCCNC1=O [lopinavir] here?
A: Its value is “background levels”.
